SMILES strings stand for the structures.

In the first test the target is T1, novel bilirubin oxidase M-1 of Trachyderma tsunodae K-2593 (Trachydermella tsunodae, UniProt O61263).
T1 sequence (O61263 22-521): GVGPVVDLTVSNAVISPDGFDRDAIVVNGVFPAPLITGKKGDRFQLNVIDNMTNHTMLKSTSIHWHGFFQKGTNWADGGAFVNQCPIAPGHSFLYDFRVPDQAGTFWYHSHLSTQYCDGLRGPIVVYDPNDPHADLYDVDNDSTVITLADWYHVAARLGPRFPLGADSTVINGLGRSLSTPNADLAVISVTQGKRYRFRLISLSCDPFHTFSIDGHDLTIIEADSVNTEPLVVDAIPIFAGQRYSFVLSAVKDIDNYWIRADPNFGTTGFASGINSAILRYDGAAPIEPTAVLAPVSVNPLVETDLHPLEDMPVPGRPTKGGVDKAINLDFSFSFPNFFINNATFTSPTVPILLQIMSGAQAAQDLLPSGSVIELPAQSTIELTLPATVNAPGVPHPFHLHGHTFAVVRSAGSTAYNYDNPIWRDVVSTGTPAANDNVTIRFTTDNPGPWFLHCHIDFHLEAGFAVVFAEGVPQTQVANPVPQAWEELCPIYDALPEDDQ
The test is described as follows: Effect of interfering agents on bilirubin oxidase activity (decrease in absorption at 460 nm of bilirubin). It counts as biochemical. Conditions: 10 min, pH 7, read-out: Percent interference (%).
Take `O=C(O)CN(CCN(CC(=O)O)CC(=O)O)CC(=O)O` [EDTA]: the inhibition at 1000 µM came out at 59%.

Consider `O=C(O)CI` [Iodoacetic acid], for which the inhibition at 1000 µM was determined as 10%.

Turning to `N[C@@H](CCC(=O)N[C@@H](CS)C(=O)NCC(=O)O)C(=O)O` [Reduced glutathione], the inhibition at 1000 µM was determined as 38%.

`c1ccc(-c2ccccn2)nc1` [α,α'-Dipyridyl]: the inhibition at 1000 µM worked out at 30%.

Staying with this test, now noted: 10 min, pH 7; additive 1 mM; read-out: Percent interference (%).
With `O[C@H](CS)[C@H](O)CS` (racemic) [Dithiothreitol], the inhibition at 1000 µM worked out at 86%.

As for `OCCS` [2-Mercaptoethanol], the inhibition at 1000 µM turned out to be 31%.

Take `O=C1O[C@H]([C@@H](O)CO)C(O)=C1O` [L-ascorbic acid]: the inhibition at 1000 µM worked out at 100%.

As to `N[C@@H](CS)C(=O)O` [L-cysteine], the inhibition at 1000 µM is 74%.

As for `c1cnc2c(c1)ccc1cccnc12` [o-Phenanthroline], the inhibition at 1000 µM is 34%.

These data come from patent publication US4600689A, “Novel bilirubin oxidase, its production and use” (Takara Shuzo Co., Ltd., priority 1983, dated 1986).
